For 86 molecules, LC retention time results are on record in the RepoRT retention time repository.

SMILES strings stand for the structures. Structures can show the parent of a compound that is named as a salt.

A short description of the data set: RP, Thermo Scientific Hypersil GOLD, 1.9 µm, 40 °C, 0.4 mL/min; A: water + 0.1% formic acid, pH 3; B: acetonitrile + 0.1% formic acid, pH 3; gradient (min/%B) 0/0 1/0 11/100 13/100 14/0 16/0. The settings on record: stereoisomer not certain.
Take `Nc1ncnc2c1ncn2C1CC(O)C(CO)O1` (stereo unspecified) [DEOXYADENOSINE]: the LC retention time was 1.09 min. Then `NCC(=O)NCC(=O)O` [Gly-Gly], with 0.62 min. To `C[S+](CCC(N)C(=O)[O-])CC1OC(n2cnc3c(N)ncnc32)C(O)C1O` (stereo unspecified) [S-ADENOSYLMETHIONINE] belongs 0.59 min; to `O=C(O)c1ccc[n+]([O-])c1` [Nicotinic acid N-oxide], 0.83 min. To `O=C(O)c1cncc(O)c1` [5-Hydroxynicotinic acid] belongs 0.83 min. On to `CC(=O)NCCCCN` [N-ACETYLPUTRESCINE], for which the LC retention time stood at 0.71 min. To `CC12CCC(=O)C=C1CCC1C2CCC2(C)C1CCC2(O)C(=O)CO` (stereo unspecified) [CORTEXOLONE] belongs 7.48 min. Consider `CC(C)CC(NC(=O)C1CCCN1)C(=O)O` (stereo unspecified) [Pro-Leu], for which the LC retention time was determined as 4.4 min. Regarding `CC1C(=O)Nc2ccccc21` (stereo unspecified) [3-METHYL-2-OXINDOLE], the LC retention time turned out to be 6.25 min.

As to `O=CC(O)CO` (stereo unspecified) [GLYCERALDEHYDE], the LC retention time worked out at 0.64 min. To `NC(=O)C[C@H](N)C(=O)O` [L-Asparagine] belongs 0.62 min.

Consider `N[C@H](C(=O)O)c1ccc(O)cc1` [4-HYDROXY-L-PHENYLGLYCINE], for which the LC retention time was determined as 0.67 min. To `NC(=O)NC1NC(=O)NC1=O` (stereo unspecified) [ALLANTOIN] belongs 0.67 min; to `Cc1ncc(CO)c(C(=O)O)c1O` [4-PYRIDOXATE], 1.73 min. Then `NC(=O)c1ccccc1O` [SALICYLAMIDE], with 5.33 min; and `OC1COC(O)C(O)C1O` (stereo unspecified) [XYLOSE], with 0.64 min. Then `CCCCCCCCC=CCCCCCCCCCCCCCC(=O)[O-]` [NERVONATE], with 14 min; and `O=S(=O)(O)c1ccc(O)c(O)c1` [3-4-dihydroxybenzenesulfonic acid], with 0.84 min; and `NC(=O)NCCCC(N)C(=O)O` (stereo unspecified) [CITRULLINE], with 0.65 min. Take `C[n+]1cccc(C(=O)[O-])c1` [TRIGONELLINE]: the LC retention time was 0.69 min.

In the case of `COc1cc(CCN)ccc1O` [3-METHOXYTYRAMINE], the LC retention time came to 2.47 min. Then `NCCCCN=C(N)N` [AGMATINE SULFATE], with 0.54 min. To `NC(CSSCC(N)C(=O)O)C(=O)O` (stereo unspecified) [CYSTINE] belongs 0.61 min; to `O=C1C=CC(=O)N1` [MALEIMIDE], 0.84 min. `CC(=O)OCC(=O)C1(O)CCC2C3CCC4=CC(=O)CCC4(C)C3C(O)CC21C` (stereo unspecified) [CORTISOL 21-ACETATE]: the LC retention time is 7.67 min. Then `OC1C(O)C(O)C(O)C(O)C1O` (stereo unspecified) [MYOINOSITOL], with 0.61 min; and `CNC(CCC(=O)O)C(=O)O` (stereo unspecified) [N-METHYLGLUTAMATE], with 0.66 min; and `NC(=O)c1ccc[n+](C2OC(COP(=O)(O)OP(=O)(O)OCC3OC(n4cnc5c(N)ncnc54)C(OP(=O)(O)O)C3O)C(O)C2O)c1` (stereo unspecified) [NADP], with 4.21 min.

In the case of `NC(CO)Cc1cnc[nH]1` (stereo unspecified) [HISTIDINOL], the LC retention time came out at 0.54 min. To `Nc1ccn(C2OC(COP(=O)(O)OP(=O)(O)O)C(O)C2O)c(=O)n1` (stereo unspecified) [CYTIDINE DIPHOSPHATE] belongs 1.2 min; to `CCCCCCCC=CC(=O)OC(CC(=O)[O-])C[N+](C)(C)C` (stereo not drawn) [Trans -2-decenoyl-l-carnitine], 7.45 min. To `CCCCCCCCCCCCCCC=COCC(O)COP(=O)([O-])OCC[N+](C)(C)C` (stereo unspecified) [C16_PlasmLPC] belongs 10.5 min; to `NC1C(O)OC(COS(=O)(=O)O)C(O)C1O` (stereo unspecified) [GLUCOSAMINE 6-SULFATE], 0.62 min; to `CCCCCCCCCC(=O)OCC(COP(=O)([O-])OCC[N+](C)(C)C)OC(=O)CCCCCCCCC` (stereo unspecified) [DIDECANOYL-GLYCEROPHOSPHOCHOLINE], 11.1 min. As for `CCCCCCCCCC(=O)OC(CC(=O)[O-])C[N+](C)(C)C` [Decanoyl-L-carnitine], the LC retention time was 7.63 min. With `c1ccc2ncccc2c1` [QUINOLINE], the LC retention time was determined as 3.83 min.

With `Cc1cn(C2CC(O)C(COP(=O)(O)O)O2)c(=O)[nH]c1=O` (stereo unspecified) [THYMIDINE-MONOPHOSPHATE], the LC retention time came to 0.82 min. Then `CC(CCC(=O)O)C1CCC2C3CCC4CC(O)CCC4(C)C3CC(=O)C12C` (stereo unspecified) [5b-cholanic acid-3a-OL-12-ONE], with 8.76 min; and `COC1C(O)C(CO)OC1n1cnc2c(=O)[nH]cnc21` (stereo unspecified) [2'-O-Methylinosine], with 3.73 min; and `CSCC[C@H](NC=O)C(=O)O` [N-FORMYL-L-METHIONINE], with 4.28 min. Then `O=C(O)C(=O)CS` [MERCAPTOPYRUVATE], with 0.89 min; and `O=C1OC(CO)C(O)C(O)C1O` (stereo unspecified) [GLUCONOLACTONE], with 0.64 min. With `CCCCCCCCCCCCCCCCCCCC(=O)O` [ARACHIDATE], the LC retention time stood at 13.5 min.

On to `CC(O)C(O)C1=Nc2c(nc(N)[nH]c2=O)NC1` [7-8-Dihydro-L-biopterin], for which the LC retention time was found to be 0.82 min. To `O=c1ccn(C2OC(CO)C(O)C2O)c(=O)[nH]1` (stereo unspecified) [URIDINE] belongs 0.82 min. For `Cc1ncccc1C(N)=O` [2-Methylnicotinamide], the LC retention time is 0.69 min.

In the case of `CC(=O)NC(CO)C(=O)O` (stereo unspecified) [N-ACETYLSERINE], the LC retention time amounted to 0.78 min. On to `O=C(O)c1cc[n+]([O-])cc1` [Isonicotinic acid N-oxide], for which the LC retention time is 0.81 min. To `O=c1ccn(C2CC(O)C(COP(=O)(O)O)O2)c(=O)[nH]1` (stereo unspecified) [DEOXYURIDINE-MONOPHOSPHATE] belongs 0.82 min. To `O=C(O)CCCCCCCC(=O)O` [AZELATE] belongs 6.12 min; to `O=C([O-])C(O)c1ccccc1` (stereo unspecified) [MANDELATE], 4.72 min.

As for `Nc1c(O)cccc1C(=O)O` [3-HYDROXYANTHRANILATE], the LC retention time was determined as 3.43 min. Turning to `NCCP(=O)(O)O` [(2-AMINOETHYL)PHOSPHONATE], the LC retention time was 0.63 min. Then `Cn1cnc2c(ncn2C2OC(CO)C(O)C2O)c1=N` (stereo unspecified) [1-METHYLADENOSINE], with 3.82 min; and `NCCCCCN` [CADAVERINE], with 0.55 min. In the case of `CCCCCCCCCCCCCC(=O)OCC(O)CO` (stereo unspecified) [GLYCEROL-MYRISTATE], the LC retention time turned out to be 11.2 min. To `NCCCCN` [PUTRESCINE] belongs 0.54 min. Then `CCCCCCSCC(NC(=O)CCC(N)C(=O)O)C(=O)NCC(=O)O` (stereo unspecified) [S-HEXYL-GLUTATHIONE], with 6.32 min. Turning to `O=C(O)c1ccc2ccccc2c1[O-]` [1-HYDROXY-2-NAPHTHOATE], the LC retention time worked out at 8.24 min. Regarding `CC1=C(/C=C/C(C)=C/C=C/C(C)=C/C=C/C=C(C)/C=C/C=C(C)/C=C/C2=C(C)CCCC2(C)C)C(C)(C)CCC1` [BETA-CAROTENE], the LC retention time came to 9.23 min. With `O=P(O)(O)OCC1OC(O)(CO)C(O)C1O` (stereo unspecified) [FRUCTOSE 6-PHOSPHATE], the LC retention time amounted to 0.66 min. `O=C(CO)C(O)C(O)C(O)CO` (stereo unspecified) [SORBOSE]: the LC retention time is 0.64 min. Then `Cc1ncc(C[n+]2csc(CCOP(=O)([O-])OP(=O)(O)O)c2C)c(N)n1` [THIAMINE PYROPHOSPHATE], with 0.65 min; and `O=C(O)C1CCCN1` (stereo unspecified) [PROLINE], with 0.69 min; and `CC12CCC(=O)C=C1CCC1C2C(O)CC2(C)C(C(=O)CO)CCC12` (stereo unspecified) [CORTICOSTERONE], with 7.47 min. To `CC(=O)NC(CCCC[NH3+])C(=O)[O-]` (stereo not drawn) [N-ALPHA-ACETYLLYSINE] belongs 0.72 min. Regarding `Cc1cccnc1` [3-Methylpyridine (3-Picoline)], the LC retention time was 0.82 min.

`Nc1ccc(C(=O)O)cc1` [4-AMINOBENZOATE]: the LC retention time is 3.29 min.

Take `O=C(O)c1ccccc1O` [SALICYLATE]: the LC retention time was determined as 6.26 min. Then `CC(=O)OCC(=O)C1CCC2C3CCC4=CC(=O)CCC4(C)C3CCC12C` (stereo unspecified) [DEOXYCORTICOSTERONE ACETATE], with 9.25 min; and `COC1=C(OC)C(=O)C(CC=C(C)CCC=C(C)C)=C(C)C1=O` [coenzyme Q2], with 11 min. As to `NC1(C(=O)O)CC1` [1-AMINOCYCLOPROPANECARBOXYLATE], the LC retention time is 0.64 min. Then `O=c1ccn(C2OC(COP(=O)(O)OP(=O)(O)OP(=O)(O)O)C(O)C2O)c(=O)[nH]1` (stereo unspecified) [URIDINE TRIPHOSPHATE], with 0.6 min; and `C[N+](C)(C)[O-]` [trimethylamine N-oxide], with 0.64 min; and `CC(N)(Cc1cnc[nH]1)C(=O)O` (racemic) [Alpha-methyl-DL-histidine dihydrochloride], with 0.61 min. To `CC(=O)C(=O)O` [pyruvic acid] belongs 0.78 min; to `O=P(O)(O)OC(CO)CO` [BETA-GLYCEROPHOSPHATE], 0.67 min; to `Cc1ncc(CO)c(C=O)c1O` [PYRIDOXAL], 0.72 min. To `O=C(O)/C=C/c1cccc(O)c1` [trans-3-Hydroxycinnamic acid (m-Coumaric acid)] belongs 5.82 min; to `CCCCCCCCCCCCCCCCCCCCCCC(=O)[O-]` [TRICOSANOATE], 14.6 min; to `Nc1ncnc2nc[nH]c12` [ADENINE], 0.74 min. For the molecule `O=C(O)c1cccnc1` [Nicotinic acid], the LC retention time was 0.81 min. Regarding `O=C[C@H](O)[C@H](O)CO` [D-(-)-Erythrose], the LC retention time is 0.7 min.

For `CC(C)CC(O)C(=O)O` (stereo unspecified) [2-Hydroxyisocaproic acid], the LC retention time is 6.31 min. Then `NC(CCSSCCC(N)C(=O)O)C(=O)O` (stereo unspecified) [HOMOCYSTINE], with 0.72 min; and `Nc1ccc(C(=O)O)cn1` [6-Aminopyridine-3-carboxylic acid], with 0.87 min.
